Measurements published in publication PMC10974290, “Biocatalytic Synthesis of Coumarin S-Glycosides: Towards Non-Cytotoxic Probes for Biomedical Imaging and Sensing” (Molecules, 2024).

Test system: MCF-7 (breast adenocarcinoma)
Test: MTT cell proliferation assay, MCF-7
Type: cell-based
Details: Homo sapiens, MCF7, 72 h incubation, 95% confidence interval in parentheses
Procedure: To use these S-glycosidic compounds in cellulo, the potential impact of the glycosidic linkage nature on the anticancer activity was assessed. The S-glycoside derivatives and the 7-MC were tested against four human cancer cell lines and a healthy one, namely A549 (lung carcinoma), HS-683 (glioma cancer), MCF-7 (breast adenocarcinoma), SK-MEL-28 (melanoma skin cancer), and HaCaT (keratinocyte normal skin), using MTT (thiazolyl blue tetrazolium bromide, Sigma-Aldrich, St. Louis, MO, USA) assay, as previously described in the literature. The selected reference drugs were 5-fluorouracil (5-FU) and etoposide.
Cell proliferation of five distinct cell lines was evaluated using the colorimetric MTT (thiazolyl blue tetrazolium bromide, Sigma) assay. Human keratinocyte normal skin HaCaT was cultivated in DMEM supplemented with 4.5 g/L glucose, 2 mM L-glutamine, and 10% FBS. Cancer cell lines and their respective growth media were obtained from CLS Cell Line Service GmbH (Eppelheim, Germany). Specifically, human skin melanoma SK-MEL-28 and human brain glioma HS683 were cultivated in DMEM with identical supplements as HaCaT cells. The human lung carcinoma cell line A-549 was grown in DMEM/Ham’s F12 (1:1) medium supplemented with 2 mM L-glutamine and 5% FBS. Additionally, human breast adenoma carcinoma MCF-7 cells were sustained in EMEM supplemented with 2 mM L-glutamine, sodium pyruvate, non-essential amino acids (NEAAs), 10 µg/mL insulin human, and 10% FBS. The MTT assay relies on the reduction of the yellow product thiazolyl blue tetrazolium bromide (MTT) to formazan, a purple-blue product, by mitochondrial dehydrogenases in metabolically active cells. The number of living cells after incubation in the presence (or absence, control) of the tested molecules is directly proportional to the blue color, which was measured by spectrophotometry. To perform the assay, cells were initially seeded at a density of 2500 cells/mL in 96-well culture plates (Nunc™ Edge 2.0, Fisher) and allowed to adhere and proliferate over a 24-hour incubation period. Following this, the cells were treated with various concentrations of the tested compounds, which were previously prepared as serial dilutions and dissolved in 0.1% DMSO. These stable solutions guarantee the consistency of experimental conditions over extended periods. Each concentration of the tested compounds underwent triplicate testing (n = 3), and cells were subsequently incubated for 72 h to allow for thorough evaluation. Following this incubation period, MTT reagent (5 mg/mL solution in PBS) was introduced to each well (10% v/v), and cells were further incubated for 4 h. Then, the culture medium was carefully removed, and the resulting blue formazan crystals were dissolved in 100 µL of 100% DMSO. Absorbance readings were taken at 540 nm, referencing a wavelength of 620 nm, using a spectrophotometer. In determining the IC50, the absorbance of serial dilutions of each cell line, treated under identical conditions but without the presence of the tested compounds, was measured.

IC50 [µM]	Compound
> 1000	Cc1cc(=O)oc2cc(S[C@@H]3O[C@H](CO)[C@@H](O)[C@H](O)[C@H]3O)ccc12 [Compound S-3, 4-Methylumbellifer-7-yl 1-thio-β-D-glucopyranoside]
128	Cc1cc(=O)oc2cc(S[C@@H]3OC[C@@H](O)[C@H](O)[C@H]3O)ccc12 [Compound S-2, 4-Methylumbellifer-7-yl 1-thio-β-D-xylopyranoside]
> 1000	Cc1cc(=O)oc2cc(S[C@@H]3O[C@H](C(=O)O)[C@@H](O)[C@H](O)[C@H]3O)ccc12 [Compound S-1, 4-Methylumbellifer-7-yl 1-thio-β-D-glucopyranosiduronic acid]
> 1000	Cc1cc(=O)oc2cc(S)ccc12 [Compound 7-MC, 7-mercapto-4-methylcoumarin, reference compound]
> 1000	Cc1cc(=O)oc2cc(S[C@@H]3O[C@H](C)[C@H](O)[C@H](O)[C@H]3O)ccc12 [Compound S-5, 4-Methylumbellifer-7-yl 1-thio-β-D-fucopyranoside]
> 1000	Cc1cc(=O)oc2cc(S[C@@H]3O[C@H](CO)[C@H](O)[C@H](O)[C@H]3O)ccc12 [Compound S-4, 4-Methylumbellifer-7-yl 1-thio-β-D-galactopyranoside]
> 1000	Cc1cc(=O)oc2cc(S[C@H]3O[C@H](CO)[C@H](O)[C@H](O)[C@H]3O)ccc12 [Compound S-6, 4-Methylumbellifer-7-yl 1-thio-α-D-galactopyranoside]
